In US20250032651A1, “[177LU] LUTETIUM-PSMA I&T COMPOSITION AND DOSIMETRY, KIT, METHOD OF MAKING, AND METHOD OF USING THEREOF” (Curium US LLC, priority 2022, published 2025):

Key:
[1] = Cycle 3 dosimetry (TACs of cycle 1 scaled to cycle 3 time points); format: in vivo, human; conditions: for Absorbed Dose in Cycle 3, Mean / Absorbed Dose in Cycle 3, max / Absorbed Dose in Cycle 3, min: N = 16
Description: (§1) To evaluate potential changes in the tracer's kinetics and uptake after multiple treatment cycles, 16 of the 27 patients included in the dosimetry sub study, were imaged at both cycle 1 and cycle 3. Among these, at cycle 3, three patients were imaged at all 4 timepoints and the other 13 were imaged at one or two timepoints only (24 h, 48 h or both 24 h and 48 h) (Table 2). For these 13 patients, the TACs obtained at cycle 1 were used for each source organ and scaled to the normalized activity value(s) measured at Cycle 3. For patients imaged at two timepoints, the TACs were preferably scaled using the average scaling factor between the two timepoints.
A subgroup of 16 out of the 27 patients underwent and additional dosimetry assessment at Cycle 3. Among these, three patients had dosimetry performed based on images taken at 4 timepoints, while the remaining patients had dosimetry performed at 1 or 2 imaging timepoints only.
as §1, with “7 in Appendix 1).” for “2).”

[2] = Radiochemical purity of ^177Lu-PSMA I&T by HPLC in different formulation compositions, hours post EOS (Example 3); format: physicochemical
Description: Product formulation details are described in Table 6.
Radiochemical purity of each solution was followed by HPLC up to 71-93 hours post-radiolabeling.

[3] = Lacrimal Glands (OLINDA sphere model)
[4] = Lacrimal Glands, OLINDA sphere model

O=C([O-])CC[C@H](NC(=O)N[C@@H](CCCCNC(=O)CCCCCCC(=O)NCCCC[C@@H](NC(=O)[C@@H](Cc1ccccc1)NC(=O)[C@@H](Cc1ccc(O)c(I)c1)NC(=O)CC[C@H](C(=O)[O-])N1CCN(CC(=O)[O-])CCN(CC(=O)[O-])CCN(CC(=O)[O-])CC1)C(=O)[O-])C(=O)[O-])C(=O)[O-].[177Lu+3].[H+].[H+].[H+].[H+].[H+] [^177Lu-PSMA I&T, (3S,7S,26R,29R,32R,37R)-29-benzyl-32-(4-hydroxy-3-iodobenzyl)-5,13,20,28,31,34-hexaoxo-37-(4,7,10-tris(carboxymethyl)-1,4,7,10-tetraazacyclododecan-1-yl)-4,6,12,21,27,30,33-heptaazaheptatriacontane-1,3,7,26,37-pentacarboxylic acid; lutetium-177 (III)]
Absorbed Dose in Cycle 3, Mean ([1]; Adrenals): 0.02 Gy/GBq | Absorbed Dose in Cycle 3, max ([1]; Adrenals): 0.03 Gy/GBq | Absorbed Dose in Cycle 3, min ([1]; Adrenals): 0.01 Gy/GBq | Absorbed Dose in Cycle 3, Mean ([1]; Brain): 0.01 Gy/GBq | Absorbed Dose in Cycle 3, max ([1]; Brain): 0.02 Gy/GBq | Absorbed Dose in Cycle 3, min ([1]; Brain): 0.00 Gy/GBq | absorbed radiation dose, kidneys (mean ± SD) ([1]; Cycle 3, 16 patients imaged at cycle 1 and 3): 0.49±0.19 Gy/GBq | Absorbed Dose in Cycle 3, Mean ([1]; Esophagus): 0.01 Gy/GBq | Absorbed Dose in Cycle 3, max ([1]; Esophagus): 0.02 Gy/GBq | Absorbed Dose in Cycle 3, min ([1]; Esophagus): 0.00 Gy/GBq | Absorbed Dose in Cycle 3, Mean ([1]; Eyes): 0.01 Gy/GBq | Absorbed Dose in Cycle 3, max ([1]; Eyes): 0.02 Gy/GBq | Absorbed Dose in Cycle 3, min ([1]; Eyes): 0.00 Gy/GBq | Absorbed Dose in Cycle 3, Mean ([1]; Gallbladder wall): 0.01 Gy/GBq | Absorbed Dose in Cycle 3, max ([1]; Gallbladder wall): 0.02 Gy/GBq | Absorbed Dose in Cycle 3, min ([1]; Gallbladder wall): 0.00 Gy/GBq | Absorbed Dose in Cycle 3, Mean ([1]; Heart wall): 0.01 Gy/GBq | Absorbed Dose in Cycle 3, max ([1]; Heart wall): 0.02 Gy/GBq | Absorbed Dose in Cycle 3, min ([1]; Heart wall): 0.00 Gy/GBq | Absorbed Dose in Cycle 3, Mean ([1]; Kidneys): 0.49 Gy/GBq | Absorbed Dose in Cycle 3, max ([1]; Kidneys): 0.85 Gy/GBq | Absorbed Dose in Cycle 3, min ([1]; Kidneys): 0.19 Gy/GBq | Absorbed Dose in Cycle 3, Mean [1, 3]: 0.29 Gy/GBq | Absorbed Dose in Cycle 3, max [1, 3]: 0.73 Gy/GBq | Absorbed Dose in Cycle 3, min [1, 3]: 0.10 Gy/GBq | Absorbed Dose in Cycle 3, Mean [1, 4]: 0.29 Gy/GBq | Absorbed Dose in Cycle 3, max [1, 4]: 0.73 Gy/GBq | Absorbed Dose in Cycle 3, min [1, 4]: 0.10 Gy/GBq | Absorbed Dose in Cycle 3, Mean ([1]; Left colon): 0.41 Gy/GBq | Absorbed Dose in Cycle 3, max ([1]; Left colon): 0.94 Gy/GBq | Absorbed Dose in Cycle 3, min ([1]; Left colon): 0.07 Gy/GBq | Absorbed Dose in Cycle 3, Mean ([1]; Liver): 0.06 Gy/GBq | Absorbed Dose in Cycle 3, max ([1]; Liver): 0.15 Gy/GBq | Absorbed Dose in Cycle 3, min ([1]; Liver): 0.00 Gy/GBq | Absorbed Dose in Cycle 3, Mean ([1]; Lungs): 0.01 Gy/GBq | Absorbed Dose in Cycle 3, max ([1]; Lungs): 0.02 Gy/GBq | Absorbed Dose in Cycle 3, min ([1]; Lungs): 0.00 Gy/GBq | Absorbed Dose in Cycle 3, Mean ([1]; Osteogenic cells): 0.02 Gy/GBq | Absorbed Dose in Cycle 3, max ([1]; Osteogenic cells): 0.09 Gy/GBq | Absorbed Dose in Cycle 3, min ([1]; Osteogenic cells): 0.00 Gy/GBq | Absorbed Dose in Cycle 3, Mean ([1]; Pancreas): 0.01 Gy/GBq | Absorbed Dose in Cycle 3, max ([1]; Pancreas): 0.02 Gy/GBq | Absorbed Dose in Cycle 3, min ([1]; Pancreas): 0.00 Gy/GBq | Absorbed Dose in Cycle 3, Mean ([1]; Prostate): 0.01 Gy/GBq | Absorbed Dose in Cycle 3, max ([1]; Prostate): 0.02 Gy/GBq | Absorbed Dose in Cycle 3, min ([1]; Prostate): 0.01 Gy/GBq | Absorbed Dose in Cycle 3, Mean ([1]; Rectum): 0.39 Gy/GBq | Absorbed Dose in Cycle 3, max ([1]; Rectum): 0.90 Gy/GBq | Absorbed Dose in Cycle 3, min ([1]; Rectum): 0.06 Gy/GBq | Absorbed Dose in Cycle 3, Mean ([1]; Red Marrow): 0.03 Gy/GBq | Absorbed Dose in Cycle 3, max ([1]; Red Marrow): 0.17 Gy/GBq | Absorbed Dose in Cycle 3, min ([1]; Red Marrow): 0.00 Gy/GBq | Absorbed Dose in Cycle 3, Mean ([1]; Right Colon): 0.22 Gy/GBq | Absorbed Dose in Cycle 3, max ([1]; Right Colon): 0.51 Gy/GBq | Absorbed Dose in Cycle 3, min ([1]; Right Colon): 0.04 Gy/GBq | Absorbed Dose in Cycle 3, Mean ([1]; Salivary Glands): 0.20 Gy/GBq | Absorbed Dose in Cycle 3, max ([1]; Salivary Glands): 0.69 Gy/GBq | Absorbed Dose in Cycle 3, min ([1]; Salivary Glands): 0.04 Gy/GBq | Absorbed Dose in Cycle 3, Mean ([1]; Small intestine): 0.04 Gy/GBq | Absorbed Dose in Cycle 3, max ([1]; Small intestine): 0.10 Gy/GBq | Absorbed Dose in Cycle 3, min ([1]; Small intestine): 0.01 Gy/GBq | Absorbed Dose in Cycle 3, Mean ([1]; Spleen): 0.03 Gy/GBq | Absorbed Dose in Cycle 3, max ([1]; Spleen): 0.12 Gy/GBq | Absorbed Dose in Cycle 3, min ([1]; Spleen): 0.01 Gy/GBq | Absorbed Dose in Cycle 3, Mean ([1]; Stomach Wall): 0.01 Gy/GBq | Absorbed Dose in Cycle 3, max ([1]; Stomach Wall): 0.02 Gy/GBq | Absorbed Dose in Cycle 3, min ([1]; Stomach Wall): 0.00 Gy/GBq | Absorbed Dose in Cycle 3, Mean ([1]; Testes): 0.01 Gy/GBq | Absorbed Dose in Cycle 3, max ([1]; Testes): 0.02 Gy/GBq | Absorbed Dose in Cycle 3, min ([1]; Testes): 0.00 Gy/GBq | Absorbed Dose in Cycle 3, Mean ([1]; Thymus): 0.01 Gy/GBq | Absorbed Dose in Cycle 3, max ([1]; Thymus): 0.02 Gy/GBq | Absorbed Dose in Cycle 3, min ([1]; Thymus): 0.00 Gy/GBq | Absorbed Dose in Cycle 3, Mean ([1]; Thyroid): 0.01 Gy/GBq | Absorbed Dose in Cycle 3, max ([1]; Thyroid): 0.02 Gy/GBq | Absorbed Dose in Cycle 3, min ([1]; Thyroid): 0.00 Gy/GBq | Absorbed Dose in Cycle 3, Mean ([1]; Total Body): 0.02 Gy/GBq | Absorbed Dose in Cycle 3, max ([1]; Total Body): 0.03 Gy/GBq | Absorbed Dose in Cycle 3, min ([1]; Total Body): 0.01 Gy/GBq | Absorbed Dose in Cycle 3, Mean ([1]; Urinary Bladder wall): 0.45 Gy/GBq | Absorbed Dose in Cycle 3, max ([1]; Urinary Bladder wall): 0.70 Gy/GBq | Absorbed Dose in Cycle 3, min ([1]; Urinary Bladder wall): 0.36 Gy/GBq | radiochemical purity as measured by HPLC ([2]; 10 ml high RAC formulation, 42.5 mg/ml ascorbic acid, 0 hours post EOS): at least 99% | radiochemical purity as measured by HPLC ([2]; 10 ml high RAC formulation, 42.5 mg/ml ascorbic acid, 46 hours post EOS): at least 93.3% | radiochemical purity as measured by HPLC ([2]; 20 ml low RAC formulation, 31 mg/ml ascorbic acid, 0 hours post EOS): at least 99.1% | adequate radiochemical stability (radiochemical purity at least 95%) ([2]; about 31 mg/ml ascorbic acid, pH about 4.5, radioactivity concentration about 640 MBq/ml or below): four | decrease in radiochemical purity over time at pH 4.5 compared with pH 7 ([2]; high RAC solutions): two times slower | radiochemical purity ([2]; high radioactivity concentration, pH 4.5, 42.5 mg/ml ascorbic acid, 24 hours post EOS): 98.0% | radiochemical purity ([2]; high radioactivity concentration, pH 4.5, 42.5 mg/ml ascorbic acid, 46 hours post EOS): 96.7% | radiochemical purity ([2]; high radioactivity concentration, pH 4.5, 42.5 mg/ml ascorbic acid, 67 hours post EOS): 95.3% | radiochemical purity ([2]; high radioactivity concentration, pH 4.5, 42.5 mg/ml ascorbic acid, 71 hours post EOS): 95.2% | radiochemical stability (radiochemical purity) ([2]; low RAC solution, pH 4.5, ascorbic acid 31 mg/ml, for 72 hours or longer): above 95.0% | radiochemical purity ([2]; low radioactivity concentration 579 MBq/ml, pH 4.5, 21 mg/ml ascorbic acid, 92 hours post EOS): 96.0% | radiochemical purity ([2]; low radioactivity concentration 588.5 MBq/ml, pH 4.5, 31 mg/ml ascorbic acid, 20 hours post EOS): 98.7% | radiochemical purity ([2]; low radioactivity concentration 588.5 MBq/ml, pH 4.5, 31 mg/ml ascorbic acid, 44 hours post EOS): 98.0% | radiochemical purity ([2]; low radioactivity concentration 588.5 MBq/ml, pH 4.5, 31 mg/ml ascorbic acid, 69 hours post EOS): 97.4% | radiochemical purity ([2]; low radioactivity concentration 588.5 MBq/ml, pH 4.5, 31 mg/ml ascorbic acid, 93 hours post EOS): 97.0% | radiochemical purity ([2]; low radioactivity concentration 626 MBq/ml, pH 5.0, 31 mg/ml ascorbic acid, 0 hours post EOS): 99.2% | radiochemical purity ([2]; low radioactivity concentration 626 MBq/ml, pH 5.0, 31 mg/ml ascorbic acid, 25 hours post EOS): 98.4% | radiochemical purity ([2]; low radioactivity concentration 626 MBq/ml, pH 5.0, 31 mg/ml ascorbic acid, 47 hours post EOS): 97.3% | radiochemical stability (radiochemical purity) ([2]; lowered formulation radioactivity concentration, for 72 hours, experiments conducted previously): above 95.0%
